Experimental data: paper PMC7252214 (The Plant journal : for cell and molecular biology, 2019)

Molecular target: T1, ApKSL2 (Andrographis paniculata, UniProt A0A3G1S3U0)
T1 sequence (A0A3G1S3U0 41-814): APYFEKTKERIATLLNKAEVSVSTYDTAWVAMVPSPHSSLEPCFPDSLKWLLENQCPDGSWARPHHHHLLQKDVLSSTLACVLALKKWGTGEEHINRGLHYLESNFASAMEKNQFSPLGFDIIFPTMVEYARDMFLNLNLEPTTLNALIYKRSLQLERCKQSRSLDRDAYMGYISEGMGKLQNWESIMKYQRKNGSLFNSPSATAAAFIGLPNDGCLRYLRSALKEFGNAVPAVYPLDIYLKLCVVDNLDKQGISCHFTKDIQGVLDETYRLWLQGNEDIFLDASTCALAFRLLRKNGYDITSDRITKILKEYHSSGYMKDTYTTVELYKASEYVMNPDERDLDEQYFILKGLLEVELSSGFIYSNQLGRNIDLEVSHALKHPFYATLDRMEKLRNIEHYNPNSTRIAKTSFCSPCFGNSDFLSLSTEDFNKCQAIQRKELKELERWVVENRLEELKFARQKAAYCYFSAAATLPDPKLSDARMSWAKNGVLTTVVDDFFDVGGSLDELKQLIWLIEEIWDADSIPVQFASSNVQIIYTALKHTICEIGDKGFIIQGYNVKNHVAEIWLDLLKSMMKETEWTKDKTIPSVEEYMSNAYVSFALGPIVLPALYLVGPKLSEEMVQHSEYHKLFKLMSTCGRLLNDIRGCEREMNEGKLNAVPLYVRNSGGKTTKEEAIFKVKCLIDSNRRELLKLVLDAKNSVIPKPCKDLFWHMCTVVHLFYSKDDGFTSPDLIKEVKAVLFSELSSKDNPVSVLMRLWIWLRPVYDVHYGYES
Test: co-expression in E. coli, GC-MS of products
Format: cell-based
Conditions: E. coli engineered to produce ent-CPP; product ent-kaurene

In the case of `C=C1CC[C@@H]2C(C)(C)CCC[C@@]2(C)[C@@H]1CC/C(C)=C/COP(=O)(O)OP(=O)(O)O` [ent-CPP], the “co-expression in E. coli, GC-MS of products” value is reported as “ApKSL2 acted on both ent-CPP, producing ent-kaurene”.
